Residues, ends and D or L forms follow the SMILES beside them. No end group written: not given here.
Assay: Hemolysis assay
Type: cell-based
Settings: sheep; 2% (v/v) erythrocyte suspension, 0.05-1 mg/mL, 37 °C 30 min; read-out: hemolysis rate
Protocol: The hemolytic activity was evaluated using a modified reference method. Briefly, sheep erythrocytes were isolated by centrifugation at 1000× g for 5 min following washing with physiological saline. The washing procedure was repeated until the supernatant became colorless, and the erythrocyte pellet was collected. A 2% (v/v) erythrocyte suspension was prepared in physiological saline. Aliquots (1 mL) of the suspension were incubated with peptide solutions (KW, WQIWYK, […]) at concentrations of 0.05, 0.1, 0.5, and 1 mg/mL. Experimental controls included 0.1% Triton X-100 (positive control) and sterile PBS (negative control). Following incubation at 37 °C for 30 min, samples were centrifuged at 1000× g for 5 min. Hemoglobin release was quantified by measuring the absorbance of 200 μL supernatant at 425 nm using a microplate reader. The hemolysis percentage was calculated as follows:Hemolysis (%) = (As − AN)/(AP − AN) × 100 where As, AN, and AP represent the absorbance values of the sample, negative control, and positive control, respectively.

Compound	hemolysis at 30 min
WQIWYK [WQIWYK]	< 5%
NCCCC[C@H](N)C(=O)N[C@@H](Cc1c[nH]c2ccccc12)C(=O)O [KW] (H-Lys-Trp-OH; N-terminus and C-terminus assumed)	< 5%

From PMC11990805, “Investigation of Anticancer Peptides Derived from Arca Species Using In Silico Analysis” (Molecules, 2025)
